This assay concerns CD2F1 mice, L1210 leukemia ip, survival T/C. Briefly: NCI In Vivo Anticancer Drug Screen. Data for tumor model L1210 Leukemia (intraperitoneal) in CD2F1 (CDF1) mice. The conditions noted are these: higher = longer survival. In outline: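 Antitumor effect is scored in animals hosting a serially transplanted tumor. Values compare compound-dosed animals against vehicle-only controls as a simple quotient.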

The mark [1] stands for this setting: endpoint: mean survival time, dose: 25.0 mg/kg/injection, schedule: Q04DX003 (ip), vehicle: saline with Tween-80.
[2] abbreviates: endpoint: mean survival time, dose: 100.0 mg/kg/injection, schedule: Q01DX001 (ip), vehicle: saline with Tween-80.
Setting [3] is: endpoint: mean survival time, dose: 200.0 mg/kg/injection, schedule: Q01DX001 (ip), vehicle: saline with Tween-80.
The mark [4] stands for this setting: endpoint: mean survival time, dose: 50.0 mg/kg/injection, schedule: Q01DX009 (ip), vehicle: saline with Tween-80.
Setting [5] is: endpoint: mean survival time, dose: 100.0 mg/kg/injection, schedule: Q01DX009 (ip), vehicle: saline with Tween-80.
Where [6] appears, read: endpoint: mean survival time, dose: 100.0 mg/kg/injection, schedule: Q04DX002 (ip), vehicle: saline with Tween-80.
Where [7] appears, read: endpoint: mean survival time, dose: 200.0 mg/kg/injection, schedule: Q01DX009 (ip), vehicle: saline with Tween-80.
Setting [8] is: endpoint: mean survival time, dose: 200.0 mg/kg/injection, schedule: Q04DX002 (ip), vehicle: saline with Tween-80.
The mark [9] stands for this setting: endpoint: mean survival time, dose: 400.0 mg/kg/injection, schedule: Q04DX002 (ip), vehicle: saline with Tween-80.
Setting [10] is: endpoint: mean survival time, dose: 25.0 mg/kg/injection, schedule: Q01DX009 (ip), vehicle: saline with Tween-80.
Where [11] appears, read: endpoint: mean survival time, dose: 100.0 mg/kg/injection, schedule: Q04DX003 (ip), vehicle: other.
Setting [12] is: endpoint: mean survival time, dose: 200.0 mg/kg/injection, schedule: Q04DX003 (ip), vehicle: other.

Each structure is given as a SMILES string. “And” between values parts separate entries of the source, which are not always exact repeats. Equal entries are not always repeated. Inconclusive results and toxic doses are left out.

In the case of `CCN(CC)Cc1ccc(Nc2cc(C)nc(/N=C(\N)Nc3ccc(Cl)c(Cl)c3)n2)cc1`, the T/C reads like this: (endpoint: mean survival time, dose: 12.5 mg/kg/injection, schedule: Q04DX003 (ip), vehicle: saline with Tween-80) 98 % of control; under setting [1], 95 % of control.
Take `COC1OC(CCl)C(Cl)C(Cl)C1O` (stereo unspecified): the T/C runs as follows: under setting [2], 102 % of control; under setting [3], 96 % of control; (endpoint: mean survival time, dose: 400.0 mg/kg/injection, schedule: Q01DX001 (ip), vehicle: saline with Tween-80) 102 % of control.
Consider `Cc1c(C)c(NC(=O)/C=C/C(=O)O)c(C)c(C)c1NC(=O)/C=C\C(=O)O`, for which the T/C (endpoint: mean survival time, dose: 100.0 mg/kg/injection, schedule: Q01DX001 (ip), vehicle: Klucel (hydroxypropylcellulose) (HPC)) was 101 % of control; the T/C (endpoint: mean survival time, dose: 200.0 mg/kg/injection, schedule: Q01DX001 (ip), vehicle: Klucel (hydroxypropylcellulose) (HPC)) was 96 % of control; the T/C (endpoint: mean survival time, dose: 400.0 mg/kg/injection, schedule: Q01DX001 (ip), vehicle: Klucel (hydroxypropylcellulose) (HPC)) is 98 % of control.
On to `CCCCCCCCCCCCCCCC(O)S(=O)(=O)O` (stereo unspecified), for which the T/C under setting [4] was 93 % of control and the T/C under setting [5] was 94 % of control.
Consider `CC(=O)/C(=C\c1ccccc1)CNC(C)(C)C`, for which the T/C reads like this: (endpoint: mean survival time, dose: 25.0 mg/kg/injection, schedule: Q01DX001 (ip), vehicle: saline with Tween-80) 92 % of control; (endpoint: mean survival time, dose: 50.0 mg/kg/injection, schedule: Q01DX001 (ip), vehicle: saline with Tween-80) 100 % of control; under setting [2], 100 % of control.
As for `O=C(C=C(C(F)(F)F)C(F)(F)F)c1cccc(C(F)(F)F)c1`, the T/C is, setting by setting: under setting [1], 106 % of control; (endpoint: mean survival time, dose: 50.0 mg/kg/injection, schedule: Q04DX003 (ip), vehicle: saline with Tween-80) 106 % of control.
For `CCCCCCCCCC(=O)NC(=S)Nc1cccc(C(C)=O)c1`, the T/C was 89 % of control under setting [2]; 87 % of control and 95 % of control under setting [5]; 88 % of control and 104 % of control under setting [6]; 93 % of control (endpoint: mean survival time, dose: 100.0 mg/kg/injection, schedule: Q04DX003 (ip), vehicle: saline with Tween-80); 88 % of control under setting [3]; 91 % of control and 109 % of control under setting [7]. For the same compound, the T/C under setting [8] is 92 % of control and 96 % of control; the T/C (endpoint: mean survival time, dose: 200.0 mg/kg/injection, schedule: Q04DX003 (ip), vehicle: saline with Tween-80) was 91 % of control; the T/C (endpoint: mean survival time, dose: 400.0 mg/kg/injection, schedule: Q01DX009 (ip), vehicle: saline with Tween-80) was 95 % of control; the T/C under setting [9] was 88 % of control and 90 % of control; the T/C (endpoint: mean survival time, dose: 400.0 mg/kg/injection, schedule: Q04DX003 (ip), vehicle: saline with Tween-80) was 95 % of control.
With `CN(C)C=Nc1ccc([N+](=O)[O-])c2ccccc12`, the T/C was 105 % of control (endpoint: mean survival time, dose: 100.0 mg/kg/injection, schedule: Q01DX009 (ip), vehicle: other); 103 % of control (endpoint: mean survival time, dose: 200.0 mg/kg/injection, schedule: Q01DX009 (ip), vehicle: other); 96 % of control (endpoint: mean survival time, dose: 400.0 mg/kg/injection, schedule: Q01DX009 (ip), vehicle: other).
Regarding `ClCC(CCl)c1nncc2ccccc12`, the T/C (endpoint: mean survival time, dose: 100.0 mg/kg/injection, schedule: Q01DX001 (ip), vehicle: saline) is 94 % of control; the T/C (endpoint: mean survival time, dose: 200.0 mg/kg/injection, schedule: Q01DX001 (ip), vehicle: saline) is 97 % of control; the T/C (endpoint: mean survival time, dose: 400.0 mg/kg/injection, schedule: Q01DX001 (ip), vehicle: saline) is 93 % of control.
With `NNC(=O)c1nnc(NN)[nH]c1=O`, the T/C is 102 % of control (endpoint: mean survival time, dose: 100.0 mg/kg/injection, schedule: Q01DX001 (ip), vehicle: carboxymethylcellulose (CMC)); 100 % of control (endpoint: mean survival time, dose: 200.0 mg/kg/injection, schedule: Q01DX001 (ip), vehicle: carboxymethylcellulose (CMC)); 93 % of control (endpoint: mean survival time, dose: 400.0 mg/kg/injection, schedule: Q01DX001 (ip), vehicle: carboxymethylcellulose (CMC)).
Consider `Nc1cccc(C(=O)O)c1C(=O)O`, for which the T/C under setting [10] was 93 % of control.
With `O=c1[nH]cc(Br)cc1[N+](=O)[O-]`, the T/C under setting [6] was 101 % of control, the T/C under setting [8] was 112 % of control and the T/C under setting [9] was 108 % of control.
Consider `O=C(O)C1CCCCC1C(=O)O.[NH-]C1CCCCC1[NH-].[Pt+2]` (stereo unspecified), for which the T/C by setting is: (endpoint: mean survival time, dose: 3.13 mg/kg/injection, schedule: Q04DX003 (ip), vehicle: other) 106 % of control; (endpoint: mean survival time, dose: 6.25 mg/kg/injection, schedule: Q04DX003 (ip), vehicle: other) 106 % of control; (endpoint: mean survival time, dose: 12.5 mg/kg/injection, schedule: Q04DX003 (ip), vehicle: other) 116 % of control; under setting [11], 187 % of control; under setting [12], 168 % of control.
Take `CC1c2ccccc2CC(CCN(C)C)c2ccccc21` (stereo unspecified): the T/C is, setting by setting: (endpoint: median survival time, dose: 6.25 mg/kg/injection, schedule: Q01DX009 (ip), vehicle: saline with Tween-80) 94 % of control; (endpoint: median survival time, dose: 12.5 mg/kg/injection, schedule: Q01DX009 (ip), vehicle: saline with Tween-80) 113 % of control; (endpoint: median survival time, dose: 25.0 mg/kg/injection, schedule: Q01DX009 (ip), vehicle: saline with Tween-80) 108 % of control; (endpoint: median survival time, dose: 50.0 mg/kg/injection, schedule: Q01DX009 (ip), vehicle: saline with Tween-80) 112 % of control.
With `CN(C)CCCN=Cc1ccccc1O.CN(C)CCCN=Cc1ccccc1O.[Ni+2]`, the T/C is 100 % of control (endpoint: mean survival time, dose: 6.25 mg/kg/injection, schedule: Q01DX009 (ip), vehicle: saline with Tween-80); 101 % of control (endpoint: mean survival time, dose: 12.5 mg/kg/injection, schedule: Q01DX009 (ip), vehicle: saline with Tween-80); 89 % of control under setting [10].
With `CCOC(=O)C1(C2=NC(C)(C)CC(C)O2)CCCCC1` (stereo unspecified), the T/C is, setting by setting: (endpoint: mean survival time, dose: 100.0 mg/kg/injection, schedule: Q04DX003 (ip), vehicle: acetone) 96 % of control; (endpoint: mean survival time, dose: 200.0 mg/kg/injection, schedule: Q04DX003 (ip), vehicle: acetone) 90 % of control; (endpoint: mean survival time, dose: 400.0 mg/kg/injection, schedule: Q04DX003 (ip), vehicle: acetone) 105 % of control.
Take `O=C(O)c1ccc2c(c1Cl)C(=O)c1ccccc1C2=O`: the T/C is 100 % of control under setting [4], 103 % of control under setting [5] and 100 % of control under setting [7].
In the case of `CCCCCCCCCCCCNC(=O)OCCN(CCOC(=O)NCCCCCCCCCCCC)C(=O)COc1ccc(Cl)cc1`, the T/C by setting is: under setting [11], 86 % of control; under setting [12], 91 % of control; (endpoint: mean survival time, dose: 400.0 mg/kg/injection, schedule: Q04DX003 (ip), vehicle: other) 93 % of control.
Regarding `C=CCSc1ncnc2c1c1c(N)ncnc1n2C1OC(CO)C(O)C1O` (stereo unspecified), the T/C is 103 % of control (endpoint: mean survival time, dose: 6.25 mg/kg/injection, schedule: Q01DX005 (ip), vehicle: other); 109 % of control (endpoint: mean survival time, dose: 12.5 mg/kg/injection, schedule: Q01DX005 (ip), vehicle: other); 101 % of control (endpoint: mean survival time, dose: 25.0 mg/kg/injection, schedule: Q01DX005 (ip), vehicle: other); 107 % of control (endpoint: mean survival time, dose: 50.0 mg/kg/injection, schedule: Q01DX005 (ip), vehicle: other); 103 % of control (endpoint: mean survival time, dose: 100.0 mg/kg/injection, schedule: Q01DX005 (ip), vehicle: other); 109 % of control (endpoint: mean survival time, dose: 200.0 mg/kg/injection, schedule: Q01DX005 (ip), vehicle: other).
As to `CC(=O)OCC1OC(n2ncc3c2ncn2nnnc32)C(OC(C)=O)C1OC(C)=O` (stereo unspecified), the T/C (endpoint: mean survival time, dose: 18.75 mg/kg/injection, schedule: Q01DX005 (ip), vehicle: distilled water + alcohol) is 100 % of control; the T/C (endpoint: mean survival time, dose: 37.5 mg/kg/injection, schedule: Q01DX005 (ip), vehicle: distilled water + alcohol) is 91 % of control; the T/C (endpoint: mean survival time, dose: 75.0 mg/kg/injection, schedule: Q01DX005 (ip), vehicle: distilled water + alcohol) is 103 % of control; the T/C (endpoint: mean survival time, dose: 150.0 mg/kg/injection, schedule: Q01DX005 (ip), vehicle: distilled water + alcohol) was 100 % of control; the T/C (endpoint: mean survival time, dose: 300.0 mg/kg/injection, schedule: Q01DX005 (ip), vehicle: distilled water + alcohol) is 103 % of control.
